Series [1] has as its target CYP2C9 (Homo sapiens, UniProt P11712). As to the kind of experiment: biochemical. As to the method: (§1) Table S4. Inhibition of cytochrome P450s.
(§2) Compounds were tested for inhibition of P450s using the enzyme substrate pairs and conditions noted. IC50s (µM) were calculated. Control P450 inhibitors were included for each isoform. […]
(§3) Serial dilutions of a 10 mM stock solution were prepared in acetonitrile:DMSO (9:1). The final DMSO concentration was < 0.2%. Compounds were incubated with human liver microsomes in the presence of 2 mM NADPH in 100 mM potassium phosphate (pH 7.4) containing 5 mM magnesium chloride and a probe substrate, in a 200 µl assay final volume in duplicate. The probe substrate concentrations including bupropion (CYP2B6), amodiaquine (CYP2C8), tolbutamide (CYP2C9), mephenytoin (CYP2C19), dextromethorphan (CYP2D6) and midazolam/testosterone […]
(§4) After incubation at 37 °C, reactions were terminated by addition of methanol containing internal standard (propranolol) for analytical quantification. The quenched samples were kept on ice for 10 min and centrifuged at 4 °C for 10 min. The supernatant was removed and the probe substrate metabolite was analyzed by LC-MS/MS (Agilent Technologies Triple Quad LC/MS). A decrease in the formation of the metabolite compared to vehicle control

Series [2] deals with CYP3A4 (Homo sapiens, UniProt P08684). As to the kind of experiment: Cytochrome P450 inhibition. In kind it is in vitro ADME. Conditions: liver microsomes. As to the method:
as §1
(§5) Compounds were tested for inhibition of P450s using the enzyme substrate pairs and conditions noted. IC50s (µM) were calculated. Control P450 inhibitors were included for each isoform.
(§6) For each compound, the analytical method was developed as follows. Analyte signal was optimized for each compound by ESI positive or negative ionization mode. An MS2 scan or an SIM scan was used to optimize fragmenter voltage and a product ion analysis was used to identify the best fragment for analysis. The collision energy was optimized using a product ion or MRM scan. An ionization ranking was assigned indicating the compound’s ease of ionization. Samples […]
(§7) 1200 HPLC and a CTC PAL chilled autosampler, all controlled by MassHunter software (Agilent).
(§8) After separation on a C18 reverse phase HPLC column (Agilent Zorbax StableBond 3.5µm, 2.1 x 30 mm) using an acetonitrile -water gradient system, peaks were analyzed by mass spectrometry (MS) using ESI ionization in MRM mode.
(§9) (1 picture or pasted object on this page, not shown here)
as §3, §4
On the technique in general: Liver microsomes are a subcellular fraction often used to study metabolism.

Series [3] has as its target CYP2D6 (Homo sapiens, UniProt P10635). As to the kind of experiment: biochemical. As to the method: as §1, §2, §7, §8, §3, §4
Series [4] can be described thus: Plasma protein binding (Rapid Equilibrium Dialysis). Format: in vitro ADME, human. Conditions: human; for fraction unbound at 4 h, 5 µM: plasma. As to the method:
Molecule fraction fraction Post-Assay
Table S5. Plasma protein binding
Protein binding was measured in human plasma using Rapid Equilibrium Dialysis (RED) devices (Pierce) according to the manufacturers’ instructions; 5 µM compounds in plasma were dialysed against PBS for 4 h at 37C. Compounds were detected by LC-MS/MS in plasma and PBS
In general terms: Equilibrium dialysis compares concentrations on both sides of a semipermeable membrane.

Series [5] deals with SPase activity in M. tuberculosis H37Rv cell membrane fractions (Mycobacterium tuberculosis, UniProt P9WKA1). As to the kind of experiment: Inhibition of secretion (SPase activity) in membrane fractions. In kind it is biochemical. Conditions: fluorogenic peptide substrate 2 μM; 4 h, 37 °C.
Series [6] relates to M. tuberculosis wild-type strain. As to the kind of experiment: MIC against wild-type M. tuberculosis. Format: cell-based, Mycobacterium tuberculosis. The note with it: concentration required to inhibit growth by 90%, 5 days culture; for MIC: Mycobacterium tuberculosis, 120 h, read-out: MIC Wild type.
For series [7], the target named is CYP2C19 (Homo sapiens, UniProt P33261). As to the kind of experiment: biochemical. As to the method:
as §1, §5, §6, §7, §8, §9, §3, §4

Series [8] concerns the target T1, CYP2C8 (Homo sapiens, UniProt P10632).
T1 sequence (P10632 1-490): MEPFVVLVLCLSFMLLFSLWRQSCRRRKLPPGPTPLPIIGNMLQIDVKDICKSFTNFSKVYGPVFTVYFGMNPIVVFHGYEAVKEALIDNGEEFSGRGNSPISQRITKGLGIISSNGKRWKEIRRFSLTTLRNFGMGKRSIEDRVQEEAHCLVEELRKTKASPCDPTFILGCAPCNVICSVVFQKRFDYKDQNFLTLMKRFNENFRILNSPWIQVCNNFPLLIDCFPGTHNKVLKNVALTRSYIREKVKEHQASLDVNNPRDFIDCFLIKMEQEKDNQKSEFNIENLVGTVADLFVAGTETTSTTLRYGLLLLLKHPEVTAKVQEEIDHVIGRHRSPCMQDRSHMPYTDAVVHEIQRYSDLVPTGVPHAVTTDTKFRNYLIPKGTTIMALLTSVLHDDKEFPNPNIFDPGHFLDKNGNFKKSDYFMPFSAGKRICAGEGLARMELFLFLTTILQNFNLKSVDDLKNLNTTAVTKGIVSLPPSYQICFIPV
As to the kind of experiment: biochemical. Here is the method: as §1, §5, §6, §7, §8, §9, §3, §4

Series [9] relates to M. tuberculosis strain under expressing LepB (LepB-UE). As to the kind of experiment: microbe, parasite or virus in culture. Conditions: for MIC: Mycobacterium tuberculosis, 120 h. Format: cell-based, Mycobacterium tuberculosis.
The subject of series [10] is Caco-2 cells. As to the kind of experiment: Caco-2 permeability. The note with it: for recovery: human, 10 μM. Here is the method: (§10) Permeability was measured across Caco-2 cells cultured in a Millipore 96-well Caco-2 plate. For apical to basolateral (A→B) permeability, 10 μM compound was added to the apical (A) side and amount of permeation was determined on the basolateral (B) side; for basolateral to apical (B→A) permeability, the compound was added to the B side and the amount of permeation was determine on the A side. Time points were taken at 2 h.
(§11) Table S2. Permeability. Permeability was measured using Caco-2 cells after 1 and 2 hours incubation with compound. (A→B) is Apical to Basolateral; (B→A) is Basolateral to Apical. Data is expressed as permeability (10-6 cm s-1). dQ/dt is rate of permeation, C0 is initial concentration […]
(§12) Article Duration direction value replicate replicate mean recovery
A general note: Caco-2 monolayers are a common model of the intestinal barrier.

Series [11] in a line: in vitro. Conditions: human. Here is the method: as §10, §11, §12
The target of series [12] is T2, CYP2B6 (Homo sapiens, UniProt P20813).
T2 sequence (P20813 1-491): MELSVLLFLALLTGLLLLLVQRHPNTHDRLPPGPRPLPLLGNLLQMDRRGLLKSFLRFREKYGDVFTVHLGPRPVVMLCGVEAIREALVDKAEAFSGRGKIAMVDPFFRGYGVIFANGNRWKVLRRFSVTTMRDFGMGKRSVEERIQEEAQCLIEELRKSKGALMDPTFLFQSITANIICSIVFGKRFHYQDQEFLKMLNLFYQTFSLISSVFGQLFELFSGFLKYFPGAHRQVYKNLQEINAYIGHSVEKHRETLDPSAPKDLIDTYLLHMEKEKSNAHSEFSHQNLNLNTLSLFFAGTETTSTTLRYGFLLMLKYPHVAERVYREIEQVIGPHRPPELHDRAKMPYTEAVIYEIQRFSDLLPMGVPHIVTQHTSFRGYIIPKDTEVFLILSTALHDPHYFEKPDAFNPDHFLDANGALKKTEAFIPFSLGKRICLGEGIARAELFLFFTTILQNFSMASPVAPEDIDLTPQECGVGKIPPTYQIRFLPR
As to the kind of experiment: Cytochrome P450 inhibition. As to the method: as §1, §5, §6, §7, §8, §9, §3, §4

Series [13] has as its system HepG2 cells. As to the kind of experiment: HepG2 cytotoxicity. The note with it: 3 days exposure, CellTiter-Glo. Format: cell-based, human. Here is the method: HepG2 cells were used to measure eukaryotic cytotoxicity. Viability of HepG2 was measured using CellTiter-Glo reagent (Promega) after 3 days of exposure to compounds. […] Staurosporine controls (maximum inhibition) and a staurosporine dose response were included on every plate.

The nature of series [14]: Microsomal metabolic stability. Conditions: human, pH 7.4. Here is the method: as §10
Table S3. Metabolic stability. Metabolic stability was measured using human liver microsomes. […]

The test system of series [15] is RAW 264.7 macrophages. As to the kind of experiment: Cytotoxicity against infected macrophages. Format: cell-based, murine. Conditions: Mus musculus; infected RAW264:7 cells, 72 h; read-out: IC50 Macrophage. As to the method:
(§13) Murine RAW 264.7 macrophages (ATCC TIB-71) were infected with M. tuberculosis DsRed (DREAM8) ([29]) as described at a multiplicity of infection of 1 for 24 h, washed, harvested, and dispensed into 384-well plates ([30]). Infected macrophages were exposed to compounds for 72 h; cell nuclei were stained with SYBR green I. Plates were imaged with an ImageXpress Micro High Content Screening System (Molecular Devices) using a ×4 objective and FITC and Texas Red channels. MetaXpress was used to determine the integrated intensity of bacteria or macrophages. […] Isoniazid and staurosporine controls (maximum inhibition) and dose responses were included on every plate.

The subject of series [16] is replicating M. tuberculosis. As to the kind of experiment: Kill kinetics, replicating bacteria. The note with it: aerobic growth.
Series [17] has as its system nonreplicating M. tuberculosis. As to the kind of experiment: Kill kinetics, nonreplicating (nutrient starved) bacteria. Format: cell-based, Mycobacterium tuberculosis. The note with it: nutrient starvation, PBS-tyloxapol.
Series [18] concerns intracellular M. tuberculosis (MTB) in RAW 264.7 macrophages. As to the kind of experiment: Activity against intracellular M. tuberculosis in macrophages (high-content microscopy). Format: cell-based. The note with it: Mycobacterium tuberculosis, RAW264.7, 72 h, intracellular M. tuberculosis in RAW 264.7 macrophages. As to the method: as §13

The term IC50 denotes the concentration that gives 50% inhibition. What is called fraction unbound is the share of the substance not bound to proteins or other matrix. A high value points to weak binding. The Papp A→B is how fast a substance crosses the layer from the apical side. A high value points to ready permeation. One may read the Papp B→A as how fast a substance crosses the layer from the basolateral side. In general, efflux ratio refers to the permeability from basolateral to apical divided by that in the opposite direction, in the common usage. One may read the half-life as how long it takes for the measured level to halve. Read a low half-life as rapid decline. The microsomal CLint is a measure of how fast metabolising enzymes remove a compound, apart from limits set by blood flow.

Molecules are shown by their SMILES. In brackets after ≈: the same amount, converted by molar mass.

Chain of CYP3A4 (P08684 2-503): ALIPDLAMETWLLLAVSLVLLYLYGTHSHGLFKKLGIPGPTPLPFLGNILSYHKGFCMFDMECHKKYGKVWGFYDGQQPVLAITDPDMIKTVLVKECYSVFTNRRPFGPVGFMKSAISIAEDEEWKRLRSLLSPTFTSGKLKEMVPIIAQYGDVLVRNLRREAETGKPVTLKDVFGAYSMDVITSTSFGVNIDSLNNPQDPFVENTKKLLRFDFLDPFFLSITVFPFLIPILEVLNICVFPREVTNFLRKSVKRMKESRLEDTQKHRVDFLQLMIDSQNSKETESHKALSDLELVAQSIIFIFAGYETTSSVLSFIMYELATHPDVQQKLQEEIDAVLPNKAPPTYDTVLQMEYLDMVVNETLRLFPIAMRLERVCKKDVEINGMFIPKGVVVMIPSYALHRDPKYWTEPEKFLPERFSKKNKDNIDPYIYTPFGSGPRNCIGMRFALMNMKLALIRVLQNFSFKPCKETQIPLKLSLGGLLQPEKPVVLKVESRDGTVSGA
Chain of SPase activity in M. tuberculosis H37Rv cell membrane fractions (P9WKA1 whole entry): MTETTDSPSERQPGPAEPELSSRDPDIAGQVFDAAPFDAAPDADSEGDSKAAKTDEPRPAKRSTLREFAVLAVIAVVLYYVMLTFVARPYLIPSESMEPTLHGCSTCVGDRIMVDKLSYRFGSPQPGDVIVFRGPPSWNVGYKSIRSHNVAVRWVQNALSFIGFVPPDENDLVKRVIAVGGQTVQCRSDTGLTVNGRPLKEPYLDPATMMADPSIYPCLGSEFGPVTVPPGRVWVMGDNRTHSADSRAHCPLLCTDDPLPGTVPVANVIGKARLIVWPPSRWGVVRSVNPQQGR
Chain of CYP2C9 (P11712 whole entry, canonical isoform): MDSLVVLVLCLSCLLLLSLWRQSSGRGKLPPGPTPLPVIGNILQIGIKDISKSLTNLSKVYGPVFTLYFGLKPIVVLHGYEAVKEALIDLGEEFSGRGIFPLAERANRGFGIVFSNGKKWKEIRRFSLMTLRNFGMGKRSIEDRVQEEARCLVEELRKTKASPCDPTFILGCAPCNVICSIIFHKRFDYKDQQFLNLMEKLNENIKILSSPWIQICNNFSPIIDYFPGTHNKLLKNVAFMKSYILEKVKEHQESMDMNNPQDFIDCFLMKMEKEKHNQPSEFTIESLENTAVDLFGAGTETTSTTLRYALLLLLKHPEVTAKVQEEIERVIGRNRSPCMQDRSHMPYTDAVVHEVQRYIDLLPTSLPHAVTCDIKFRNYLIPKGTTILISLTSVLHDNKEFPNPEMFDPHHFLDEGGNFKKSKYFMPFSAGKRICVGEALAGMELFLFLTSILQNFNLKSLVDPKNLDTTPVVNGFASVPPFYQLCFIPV
Chain of CYP2D6 (P10635 whole entry): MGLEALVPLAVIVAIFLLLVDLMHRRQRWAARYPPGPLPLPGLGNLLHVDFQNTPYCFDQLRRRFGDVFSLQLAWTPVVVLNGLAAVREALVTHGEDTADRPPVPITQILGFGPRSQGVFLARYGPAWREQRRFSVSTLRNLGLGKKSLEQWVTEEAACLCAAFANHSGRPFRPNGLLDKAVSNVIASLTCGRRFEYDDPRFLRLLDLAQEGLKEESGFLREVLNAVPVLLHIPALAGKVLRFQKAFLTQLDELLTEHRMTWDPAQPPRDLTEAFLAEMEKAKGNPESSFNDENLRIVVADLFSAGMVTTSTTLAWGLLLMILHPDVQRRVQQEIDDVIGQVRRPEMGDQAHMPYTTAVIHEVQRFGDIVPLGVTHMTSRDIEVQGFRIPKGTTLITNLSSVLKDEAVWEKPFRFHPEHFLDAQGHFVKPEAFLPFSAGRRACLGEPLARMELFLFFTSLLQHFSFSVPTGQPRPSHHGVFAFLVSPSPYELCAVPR
Chain of CYP2C19 (P33261 whole entry): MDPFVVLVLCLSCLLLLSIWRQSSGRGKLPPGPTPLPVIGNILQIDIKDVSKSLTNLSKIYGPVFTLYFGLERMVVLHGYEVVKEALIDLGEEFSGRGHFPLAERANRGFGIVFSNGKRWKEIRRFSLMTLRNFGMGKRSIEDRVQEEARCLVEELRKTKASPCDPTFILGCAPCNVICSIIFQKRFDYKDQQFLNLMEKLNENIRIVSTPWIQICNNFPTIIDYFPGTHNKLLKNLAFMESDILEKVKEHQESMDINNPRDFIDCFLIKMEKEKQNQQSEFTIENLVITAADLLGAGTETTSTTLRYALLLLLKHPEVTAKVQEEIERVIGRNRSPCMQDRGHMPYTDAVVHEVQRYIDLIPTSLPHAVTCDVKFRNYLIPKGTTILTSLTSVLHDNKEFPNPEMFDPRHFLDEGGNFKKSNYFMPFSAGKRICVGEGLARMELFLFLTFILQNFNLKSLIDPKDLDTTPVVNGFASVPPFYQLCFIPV

As to `CCCCNC(=S)Nc1nccs1` [Molecule 14, 1-butyl-3-(thiazol-2-yl)thiourea], the IC50 in series [1] is 13.2 µM; in series [3], more than 20 µM; in series [5] it was more than 200 µM; in series [7] it was 13.5 µM; in [8] it was more than 20 µM; in series [12], more than 20 µM. Also, the IC50 in series [13] (Homo sapiens, HepG2, 72 h) is 75 ± 26 µM. Besides, the 50% inhibitory concentration (IC50) at 10 min was more than 20 µM in series [2] (pH 7.4, probe midazolam) and more than 20 µM in series [2] (pH 7.4, probe testosterone). In series [4], this compound returned a recovery at 4 h, 5 µM of 83.8%. For the same compound, the fraction unbound at 4 h, 5 µM amounted to 0.01 in [4] (Mean plasma fraction Bound) and 0.0098 in series [4] (Mean plasma fraction Unbound Fuplasma). The MIC in series [6] was determined as 34 µM (≈ 7.32 µg/mL); in series [9], 41 µM (≈ 8.83 µg/mL). Moreover, the “MIC Wild type” value in [6] was found to be 34 ± 3.0 µM (≈ 7.32 µg/mL). Moreover, the “MIC LepB-UE” value in [9] was 41 ± 0.1 µM (≈ 8.83 µg/mL). Moreover, the “dQ/dt (rate of permeation), mean” value came to 2.6E-04 in [10] (A→B, assay duration 1 hr); 1.5E-04 in series [10] (A→B, assay duration 2 hr); 2.3E-04 in series [10] (B→A, assay duration 1 hr); 1.6E-04 in [10] (B→A, assay duration 2 hr). In addition, the recovery is recorded as 72% in series [10] (Caco-2, 1 h) and 65% in series [10] (Caco-2, 2 h). Moreover, the Papp A→B at 2 h, 10 µM in [11] (Caco-2) turned out to be 22 ×10⁻⁶ cm/s. In [11] (Caco-2), the Papp B→A at 2 h, 10 µM was 18 ×10⁻⁶ cm/s. Besides, in series [11] (Caco-2), the efflux ratio at 2 h, 10 µM was 0.81. The same compound had a recovery at 1 h, 10 μM in series [11] (Caco-2, recovery) of 57%. The recovery at 2 h, 10 μM in series [11] (Caco-2, recovery) amounted to 59%. Further, in series [14] (liver microsomes), the half-life at 1 µM is 26 min. Further, in series [14] (microsomes), the microsomal CLint at 1 µM came to 89 µL/min/mg.

As for `Cc1coc(NC(=S)NCC(C)C)n1` [Molecule 29, 1-isobutyl-3-(4-methyloxazol-2-yl)thiourea], the IC50 in series [15] was 8.1 ± 1.6 µM; in [13], 27 ± 6 µM; in series [13] (Homo sapiens, HepG2, 72 h) it was 27 to 78 µM. The results for the MIC in series [6] and in series [9] were 20 to 40 µM (≈ 4.27 to 8.53 µg/mL) and 12 to 21 µM (≈ 2.56 to 4.48 µg/mL), respectively. The “MIC Wild type” value in series [6] turned out to be 20 ± 23 µM (≈ 4.27 µg/mL). Besides, the “concentration with bactericidal activity (defined as 3 log kill)” value in series [16] turned out to be 27.5 μM. In series [9], the “MIC LepB-UE” value was determined as 12 ± 1.0 µM (≈ 2.56 µg/mL). In addition, the “concentration giving sterilization of nonreplicating organisms” value in series [17] came to 100 µM.

`CCCNC(=S)Nc1nc2c(Cl)cccc2s1` [Molecule 31, 1-(4-chlorobenzo[d]thiazol-2-yl)-3-propyl thiourea]: the IC50 in [15] is more than 100 µM; in series [18], 11 ± 2.2 µM; in series [13] (Homo sapiens, HepG2, 72 h), more than 100 µM. Besides, the MIC in [6] was more than 100 µM; in series [9] it was 14 µM (≈ 4 µg/mL). In addition, the “MIC LepB-UE” value in series [9] was 14 ± 2.0 µM (≈ 4 µg/mL).

Values taken from publication PMC9927457 (Microbiology Spectrum, 2023).
